Consider four compounds from EP4810054A1, “NECROPTOSIS CONTROL AGENT” (The University of Tokyo, priority 2023, dated 2025).

In data set [1] the test system is MSP-1 neurons. The data set is described as follows: P-MLKL immunostaining (necroptosis) of MSP-1 neurons treated with culture supernatant of TNF-α-treated astrocytes. It is filed as cell-based, mouse. Here is the method: (§1) To obtain differentiated astrocytes, the above MSP-1 cells were harvested and cultured overnight in the MSP-1 proliferation medium on new dishes. The next day, for differentiation into astrocytes, the cells were cultured in serum-free DMEM/F12 medium containing N-2 supplement (R&D Systems), leukemia inhibitory factor (LIF, 10 ng/ml, Fujifilm Wako Pure Chemical Industries), and ciliary neurotrophic factor (CNTF, 10 ng/ml, Fujifilm Wako Pure Chemical Industries). For differentiation into neurons, the cells were cultured in serum-free DMEM/F12 medium containing only N-2 supplement. These media are referred to as MSP-1 differentiation media. Each medium was replaced with fresh medium every 2 days. For differentiation into astrocytes, in particular, on […], the cells were exposed to tumor necrosis factor-α (TNF-α, 100 ng/ml, Fujifilm Wako Pure Chemical Industries) for 24 hours. In the anserine treatment group, the cells were pretreated with L-anserine nitrate (Fujifilm Wako Pure Chemical Industries) for 2 hours prior to the exposure to TNF-α.
The harvested MSP-1 cells were cultured in the MSP-1 differentiation medium on poly-L-lysine/fibronectin-coated chamber glass (4-well, Watson) and differentiated into astrocytes. After the TNF-α treatment, the cells were fixed with 4% PFA for 10 minutes and washed with TBS for 10 minutes. Subsequently, the cells were blocked with 5% BSA diluted in 0.05% TBS-X at room temperature for 60 minutes, then incubated overnight at 4°C in a blocking solution containing primary antibodies. The primary antibodies used in this study were anti-GFAP (mouse, 1:1000, Sigma), anti-NeuN (mouse, 1:1000, Millipore), anti-NF-κB p65 (rabbit, 1:500, CST), and anti-P-MLKL (rabbit, 1:2000, Abcam). The cells were then washed three times with TBS for 5 minutes each, and incubated with secondary antibodies at room temperature for 2 hours. The secondary antibodies used in this study were anti-mouse IgG donkey Alexa 488 (1:1000, Molecular Probes) and anti-rabbit IgG donkey Alexa 568 (1:1000, Molecular Probes). After washing with TBS for 5 minutes, the sections were incubated with DAPI (1:10,000, Sigma) in TBS for 5 minutes, and then washed with TBS 2 times for 5 minutes each. The cells were visualized using a confocal microscope (FV3000-L4EN-TN21, Olympus).
To obtain differentiated astrocytes, the MSP-1 cells were harvested and cultured overnight in the MSP-1 proliferation medium on new dishes. The next day, the medium was replaced with serum-free DMEM/F12 medium containing N-2 supplement (R&D Systems), leukemia inhibitory factor (LIF, 10 ng/ml, Wako), and ciliary neurotrophic factor (CNTF, 10 ng/ml, Wako). This medium was referred to as astrocyte differentiation medium. The culture medium was replaced with fresh medium every 2 or 3 days. […]

In data set [2] the test system is phosphorylated IKK complex. The data set is described as follows: Phosphorylated IKK immunostaining in TNF-α-treated MSP-1 astrocytes. Type of data set: cell-based, mouse. As to conditions: MSP-1 astrocytes treated with TNF-α, addition of anserine; Fig. 6. Here is the method:
(§2) To obtain differentiated astrocytes, the MSP-1 cells were harvested and cultured overnight in the MSP-1 proliferation medium on new dishes. The next day, the medium was replaced with serum-free DMEM/F12 medium containing N-2 supplement (R&D Systems), leukemia inhibitory factor (LIF, 10 ng/ml, Wako), and ciliary neurotrophic factor (CNTF, 10 ng/ml, Wako). This medium was referred to as astrocyte differentiation medium. The culture medium was replaced with fresh medium every 2 or 3 days. On day 5, the cells were exposed to tumor necrosis factor-α (TNF-α, 100 ng/ml, Wako) for 24 hours. For anserine treatment group, the cells were pretreated with L-anserine (Toronto Research Chemicals) for 2 hours prior to the exposure to TNF-α. To obtain differentiated neurons, the culture medium for MSP-1 cells was replaced with the serum-free DMEM/F12 medium containing N-2 supplement. This medium was referred to as neuron differentiation medium. The culture medium was replaced with fresh medium every 2 days. On day 5, the cells were treated for 24 hours with the culture supernatant of the astrocytes induced from MSP-1 cells. […]
(§3) The cells were cultured on poly-L-lysine/fibronectin-coated chamber glass (4-well or 8-well, Watson) containing the respective MSP-1 differentiation media to induce differentiation into astrocytes or neurons. […] The images were analyzed and quantified using ImageJ.

Data set [3] deals with MSP-1 neurons. The data set is described as follows: AT8 (tau phosphorylation) immunostaining of MSP-1 neurons treated with astrocyte culture medium. Type of data set: cell-based, mouse. The procedure:
as §2, with “TNF-α.” for “TNF-α. To obtain differentiated neurons, the culture medium for MSP-1 cells was replaced with the serum-free DMEM/F12 medium containing N-2 supplement. This medium was referred to as neuron differentiation medium. The culture medium was replaced with fresh medium every 2 days. On day 5, the cells were treated for 24 hours with the culture supernatant of the astrocytes induced from MSP-1 cells.”
as §3
(§4) Microscopic images were analyzed using the ImageJ software. For AT8, P-RIPK1, and P-MLKL staining, staining intensity was calculated. […] For P-P65 staining, only the staining intensity in the nucleus was calculated, and the data are presented as relative intensity ± S.E.M. for each group. At least 100 cells for each group were analyzed from at least 10 random images.

Data set [4] concerns MSP-1 cells differentiated into astrocytes. In words: RNA sequencing (DEG, GO/KEGG, GSEA) of TNF-α-treated MSP-1 astrocytes. Type of data set: cell-based, mouse. The procedure: as §1
The MSP-1 cells differentiated into astrocytes were harvested by trypsin treatment, and total RNA was isolated using the RNeasy Mini Kit (Qiagen). Samples (10 ng input) were pretreated using the SMART-seq Stranded Kit (Takara, Japan). Sequencing was performed using Illumina NovaSeq 6000 (Illumina, USA).
Gene expression levels were assessed by using transcripts per million (TPM) data, and differentially expressed genes (DEGs) were identified using the DESeq2 package in the R environment. Genes with p-values less than 0.05 were considered DEGs. […] Gene set enrichment analysis (GSEA) was performed based on the TPM data.
On day 5, TNF-α (100 ng/ml) was added to the MSP-1 cells differentiated into astrocytes, and the cells were treated for 24 hours. In the TNF-α + anserine group, 10 µM anserine was added to the culture medium 2 hours prior to the TNF-α treatment. These cells were harvested, and RNA sequencing (RNA-seq) analysis was performed to examine the expressed genes. […] Necroptosis-promoting factors such as C3, Ccl2, Ccl7, and Cxcl1 increased after the TNF-α treatment and decreased in the TNF-α + anserine group.
To obtain differentiated astrocytes, the MSP-1 cells were harvested and cultured overnight in the MSP-1 proliferation medium on new dishes. The next day, the medium was replaced with serum-free DMEM/F12 medium containing N-2 supplement (R&D Systems), leukemia inhibitory factor (LIF, 10 ng/ml, Wako), and ciliary neurotrophic factor (CNTF, 10 ng/ml, Wako). This medium was referred to as astrocyte differentiation medium. The culture medium was replaced with fresh medium every 2 or 3 days. On day 5, the cells were exposed to tumor necrosis factor-α (TNF-α, 100 ng/ml, Wako) for 24 hours. For anserine treatment group, the cells were pretreated with L-anserine (Toronto Research Chemicals) for 2 hours prior to the exposure to TNF-α. To obtain differentiated neurons, the culture medium for MSP-1 cells was replaced with the serum-free DMEM/F12 medium containing N-2 supplement. This medium was referred to as neuron differentiation medium. The culture medium was replaced with fresh medium every 2 days. On day 5, the cells were treated for 24 hours with the culture supernatant of the astrocytes induced from MSP-1 cells. Nec-1 and the C3aR antagonist (SB290157) were purchased from Selleck.
Total RNA was isolated from isolated astrocytes and astrocytes differentiated from MSP-1 cells using RNeasy Mini Kit (Qiagen). RNA samples in an amount of 1 ng (isolated astrocytes) or 10 ng (cultured astrocytes) were pretreated using the SMART-seq Stranded Kit (Takara Bio, Japan). Sequencing was performed using Illumina NovaSeq 6000 (Illumina, USA). Gene expression levels were evaluated using transcripts per million (TPM) data, and differentially expressed genes (DEGs) were identified using the DESeq2 package in the R environment. […]

Data set [5] is described as follows: Stability of anserine (temperature, storage in solution). It is filed as physicochemical.
The test system of data set [6] is MSP-1 neurons. The data set is described as follows: P-RIPK1 immunostaining of MSP-1 neurons treated with astrocyte culture medium. It is filed as cell-based, mouse. As to conditions: MSP-1 neurons treated with anserine CM. Here is the method: as §2, with “TNF-α.” for “TNF-α. To obtain differentiated neurons, the culture medium for MSP-1 cells was replaced with the serum-free DMEM/F12 medium containing N-2 supplement. This medium was referred to as neuron differentiation medium. The culture medium was replaced with fresh medium every 2 days. On day 5, the cells were treated for 24 hours with the culture supernatant of the astrocytes induced from MSP-1 cells.”
as §3, §4

The next data set concerns phospho-NF-κB. The data set is described as follows: Immunostaining of phospho-NF-κB (P-P65) in TNF-α-treated MSP-1 astrocytes. Type of data set: cell-based, mouse. The procedure:
The harvested MSP-1 cells were cultured in the MSP-1 differentiation medium on poly-L-lysine/fibronectin-coated chamber glass (4-well, Watson) and differentiated into astrocytes. After the TNF-α treatment, the cells were fixed with 4% PFA for 10 minutes and washed with TBS for 10 minutes. Subsequently, the cells were blocked with 5% BSA diluted in 0.05% TBS-X at room temperature for 60 minutes, then incubated overnight at 4°C in a blocking solution containing primary antibodies. The primary antibodies used in this study were anti-GFAP (mouse, 1:1000, Sigma), anti-NeuN (mouse, 1:1000, Millipore), anti-NF-κB p65 (rabbit, 1:500, CST), and anti-P-MLKL (rabbit, 1:2000, Abcam). […]
as §3, §4

Data set [7] has as its system C3, Ccl2, Cxcl1, and iNOS. The data set is described as follows: Real-time PCR of inflammatory factor genes in TNF-α-treated MSP-1 astrocytes. Type of data set: cell-based, mouse. Here is the method:
as §2, with “days.” for “days. On day 5, the cells were treated for 24 hours with the culture supernatant of the astrocytes induced from MSP-1 cells.”
Reverse transcription reactions for cDNA synthesis were performed on the isolated RNA samples (500 ng) using SuperScript™ III Reverse Transcriptase (Thermo Fisher) according to the manufacturer's instructions. […] Analysis was performed by the 2-ΔΔ-Ct method, and the results are expressed as fold changes. […]
In general terms: Quantitative PCR measures a nucleic acid by following its amplification.

Data set [8] concerns male albino rats with experimentally induced sepsis. As to conditions: carnosine 25 mg/kg and 50 mg/kg for 30 days; cited from earlier work.
Setting [9] is: 10 µM anserine 2 hours prior to TNF-α 100 ng/ml, 24 hours, versus TNF-α group.
Where [10] appears, read: 10 µM anserine added 2 hours prior to TNF-α (100 ng/ml, 24 hours), RNA-seq.
Setting [11] is: Example 2, MSP-1 astrocytes pretreated with anserine before TNF-α, Fig. 5A.

With `N=C(N)NCCCC(NC(=O)COCC(c1ccccc1)c1ccccc1)C(=O)O` (centres unmarked) [C3aR antagonist, reference compound], in the data set on MSP-1 neurons [1] (MSP-1 neurons treated with TNF CM plus C3aRA (10 µM), Fig. 4), the p-MLKL intensity entry is listed as “decreased significantly”.

Take `CN1C(=O)C(Cc2c[nH]c3ccccc23)NC1=S` (centres unmarked) [Nec-1, necrostatin-1, reference compound]: the p-MLKL intensity entry in the data set with MSP-1 neurons [1] (MSP-1 neurons treated with TNF CM plus Nec 1 (30 µM), Fig. 4) was “decreased significantly to the same level”.

Regarding `Cn1cncc1C[C@H](NC(=O)CCN)C(=O)O` [anserine, (2S)-2-[(3-amino-1-oxopropyl)amino]-3-(3-methyl-4-imidazolyl)propanoic acid], the “expression of the phosphorylated IKK complex” value in [2] is reported as “reduced”. The “intensity of AT8” value with MSP-1 neurons [3] (MSP-1 neurons treated with anserine CM) is “significant decrease”. The “tau-phosphorylation (p-tau expression, AT-8 staining)” value in the data set on MSP-1 neurons [3] (MSP-1 neurons treated with culture medium from TNF-α + anserine group (anserine CM), Fig. 4) is listed as “did not exhibit such p-tau expression”. The “intensity of P-MLKL” value with MSP-1 neurons [1] (MSP-1 neurons treated with anserine CM, Fig. 4) was “significant decrease”. For the same compound, the “necroptosis of MSP-1 neurons (expression of P-MLKL in necrosomes)” value in the data set on MSP-1 neurons [1] (culture supernatant containing 10 mM anserine in addition to TNF-α, compared with sham group, Fig. 3) is “suppressed to a degree comparable to that observed with untreated culture supernatant (sham group)”. In [4] (setting [9]), the “Mfge8 (milk fat globule-EGF factor 8) expression (RNA-seq)” value is given as “increased”; the “Necroptosis-promoting factors such as C3, Ccl2, Ccl7, and Cxcl1 (expression, RNA-seq)” value is recorded as “decreased”. Besides, in data set [4] (setting [10]), the “DEGs down-regulated, TNF-α + anserine vs TNF-α treatment group” value came to 169; the “DEGs up-regulated, TNF-α + anserine vs TNF-α treatment group” value turned out to be 159; the “differentially expressed genes (DEGs) in the TNF-α + anserine treatment group in comparison with the TNF-α treatment group” value was determined as 328. Besides, in data set [4] (setting [11]), the complement activation entry is “reduced”. The “expression of gene groups involved in necroptosis induction (chemokine signaling pathway, response to cytokine, immune response, TNF signaling-related genes), GO and KEGG analyses” value in data set [4] (TNF-α + anserine group) is listed as “significant decrease in expression”. Also, in data set [4] (TNF-α + anserine group versus TNF-α group), the “expressions of inflammation-related genes, chemokine pathway, and complement activation pathway (GSEA)” value is on record as “decreased”. For the same compound, the “stable storage in solution (duration)” value in data set [5] (in solution) was “at least two years and nine months”. Also, the “stability at room temperature and under conditions of 180°C or lower” value in data set [5] (room temperature, 180°C or lower) is “sufficiently stable”. In the data set on MSP-1 neurons [6], the “intensity of P-RIPK1” value is on record as “significant decrease”. Also, the NF-κB activity result in the data set with phospho-NF-κB (setting [11]) is given as “reduced”. Also, the “expression of phospho-NF-κB” value with phospho-NF-κB (anserine treatment, TNF-α-induced MSP-1 astrocytes, Figs. 2B and 2C) is “reduced”. Also, the “expressions of inflammatory factors such as C3” value in [7] (setting [11]) was “decreased”. Further, in data set [7] (anserine treatment group versus TNF-α treatment group, Fig. 2D), the “expressions of C3, Ccl2, Cxcl1, and iNOS (real-time PCR)” value was “significantly decreased”.

Consider `NCCC(=O)N[C@@H](Cc1cnc[nH]1)C(=O)O` [carnosine], for which, in data set [8], the “IL-β, TNF-α, and MIF” value is listed as “reduced”; the “expression of IκBα” value is listed as “increased”; the “increased expression of p65 and p-IKKα/β (Ser 180/Ser 181)” value is given as “suppressed”; the “lipid peroxidation and other antioxidant enzymes” value is on record as “significantly normalized”.
